Experimental data from ChEMBL document CHEMBL1201862, “PubChem BioAssay data set” (2004).
Active and inactive are the calls of the source.

Legend:
[1] = biological target: Ubiquitin carboxyl-terminal hydrolase BAP1 (Homo sapiens, UniProt Q92560); experiment: inhibition of BAP1 ubiquitin hydrolase activity – biochemical, dose response (AID 714); format: functional
[2] = biological target: T1, Carboxy-terminal domain RNA polymerase II polypeptide A small phosphatase 1 (Homo sapiens, UniProt Q9GZU7); experiment: CTDSP1 inhibitors, concentration-response, biochemical, absorbance readout, ultra-high-throughput screen actives (AID 540297); format: functional
T1 sequence (Q9GZU7 whole entry): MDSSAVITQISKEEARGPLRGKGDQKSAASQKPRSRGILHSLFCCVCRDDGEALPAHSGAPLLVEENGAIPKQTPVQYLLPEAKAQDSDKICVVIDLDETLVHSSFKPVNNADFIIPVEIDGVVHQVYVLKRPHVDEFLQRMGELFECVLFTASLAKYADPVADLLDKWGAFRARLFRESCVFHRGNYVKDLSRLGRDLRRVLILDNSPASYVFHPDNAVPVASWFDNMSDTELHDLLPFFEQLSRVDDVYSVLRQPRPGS

[3] = biological target: T2, Voltage-gated N-type calcium channel alpha-1B subunit/Amyloid beta A4 precursor protein-binding family A member 1 (Homo sapiens, UniProt Q00975+Q02410); format: protein assay
[4] = biological target: Protein Tat (Human immunodeficiency virus type 1 group M subtype B (isolate HXB2)(HIV-1), UniProt P04608); format: functional;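 note: tat binding to TAR RNA read out by fluorescence polarization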
[5] = biological target: T2, Voltage-gated N-type calcium channel alpha-1B subunit/Amyloid beta A4 precursor protein-binding family A member 1; format: protein assay; remark: listed apart in the source
[6] = fluconazole-exposed Candida albicans growth modulators – fluorescence, retest, confirmation (AID 2467); format: functional, cell-based
[7] = biological target: Ephrin type-A receptor 4 (Mus musculus, UniProt Q03137); experiment: EphA4 ligand-binding antagonists – biochemical, colorimetric, mouse EphA4, primary screen (AID 689); format: functional
[8] = NIH-3T3 fibroblast cytotoxicity, dose response, cytotoxicity control, cell-based, fluorescence, Alamar Blue, secondary assay (AID 2327); format: functional;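 note: NIH-3T3 mouse fibroblasts cultured with fluconazole at 8 µg/mL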
[9] = biological target: T3, Heat shock factor protein 1 (Mus musculus, UniProt P38532); experiment: decrease of HSF1-responsive luciferase luminescence – cell-based, NIH3T3, dose retest, confirmation (AID 2382); format: functional;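 note: NIH3T3 fibroblasts with HSF1-driven luciferase reporter stressed by proteasome inhibitor MG132; luminescence from HSF1-driven luciferase expression after 8 hours of MG132 stress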
T3 sequence (P38532 whole entry): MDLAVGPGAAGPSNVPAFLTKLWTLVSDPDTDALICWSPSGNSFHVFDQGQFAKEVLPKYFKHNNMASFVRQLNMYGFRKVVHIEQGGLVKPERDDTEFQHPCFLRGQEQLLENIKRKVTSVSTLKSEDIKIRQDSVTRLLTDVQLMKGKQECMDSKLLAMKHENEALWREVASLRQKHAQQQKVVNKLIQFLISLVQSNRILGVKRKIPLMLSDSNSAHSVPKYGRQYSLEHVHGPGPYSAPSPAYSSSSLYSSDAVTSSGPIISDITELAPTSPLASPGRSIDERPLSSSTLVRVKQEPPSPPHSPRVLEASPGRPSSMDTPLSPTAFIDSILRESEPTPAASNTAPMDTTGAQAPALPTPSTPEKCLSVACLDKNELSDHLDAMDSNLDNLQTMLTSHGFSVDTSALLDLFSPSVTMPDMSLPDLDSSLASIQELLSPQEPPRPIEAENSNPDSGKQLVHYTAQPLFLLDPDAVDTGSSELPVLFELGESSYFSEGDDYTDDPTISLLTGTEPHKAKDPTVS

[10] = viability of uninfected HEp-2 cells – cell-based, HTS, cytotoxicity control for RSV inhibitor project, dose response (AID 2410); format: functional; details: human respiratory syncytial virus
[11] = viability inhibitors of stage V gametocytes – luminescence, dose response (AID 1117278); format: functional, cell-based;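 note: gametocytes exposed to compound for 24 hours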
[12] = viability loss in human Jurkat cells – cell-based, luminescence, cytotoxicity control for P. falciparum gametocyte viability project, dose response (AID 1117277); format: functional;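 note: potency reflects loss of cellular ATP meaning fewer viable cells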
[13] = biological target: Mitogen-activated protein kinase 10 (Homo sapiens, UniProt P53779); experiment: Dose response biochemical screening assay for inhibitors of c-Jun N-Terminal Kinase 3 (JNK3). [Related pubchem assays: 746 ]
[14] = biological target: 5-hydroxytryptamine receptor 1A (Homo sapiens, UniProt P08908); format: functional
[15] = growth inhibition of yeast DHODH-expressing 3D7 parasites – SYBR Green, dry powder samples, dose response (AID 1159570); format: functional, cell-based;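 note: parasite growth measured after 72 hours of compound exposure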
[16] = Plasmodium falciparum Dd2 Sybr green parasite growth Measured in Cell-Based and Microorganism Combination System Using Plate Reader - 2153-01_Inhibitor_Dose_DryPowder_Activity_Set3.; format: functional
[17] = Dd2 malaria parasite growth inhibition potency – SYBR Green, dry powder samples, dose response (AID 1159566); format: functional, cell-based;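 note: potency for growth inhibition with lower SYBR green DNA signal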
[18] = Dd2 parasite growth inhibition in erythrocytes – SYBR Green, dry powder samples, set 9, dose response (AID 1159568); format: functional, cell-based
[19] = growth inhibition of PfATP4-mutant resistant parasites – NITD609-resistant line, SYBR Green, dry powder, dose response (AID 1159571); format: functional, cell-based;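 note: parasites synchronized at ring stage by sorbitol before testing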
[20] = toxicity to human hepatoma HepG2 cells – cell-based, cherry-picked samples, cytotoxicity control, dose response (AID 1159577); format: functional
[21] = toxicity to human HepG2 hepatoma cells – cell-based, plate reader, dry powder samples, cytotoxicity control, dose response (AID 1159569); format: functional;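 note: inhibitor potency with signal falling toward the positive control level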
[22] = P. falciparum Dd2 growth inhibitors, dose response, SYBR Green, cherry-picked samples (AID 1159567); format: functional, cell-based
[23] = HCT116 cell viability decrease, GSK3B pretreatment – CellTiter-Glo, IC50, dose response (AID 1117339); format: functional; details: HCT-116
[24] = SNU-C1 cell viability reduction, dose response, CellTiter-Glo luminescence (AID 1117323); format: functional, cell-based
[25] = cytotoxicity toward HT-29 cells – cell-based, CellTiter-Glo luminescence, IC50, dose response (AID 1117330); format: functional
[26] = Reduced DLD-1 viability, concentration-response, CellTiter-Glo luminescence (AID 1117352); format: functional
[27] = CellTiter-Glo luminescence survival assay, SW480 colon tumor line, concentration-response curve, half-maximal inhibitory concentration (AID 1117338); format: functional
[28] = rise of 2N DNA cells, HeLa – IC50, dose response (AID 1117349); format: functional, cell-based
[29] = cytotoxicity toward HCT116 cells – cell-based, CellTiter-Glo luminescence, IC50, dose response (AID 1117332); format: functional; details: HCT-116
[30] = rise of 4N DNA cells, HeLa – IC50, dose response (AID 1117351); format: functional, cell-based
[31] = IC50 of insulin release inhibition, rat insulinoma INS-1E line, 5 mM glucose, cell-based (AID 1117331); format: functional
[32] = cells; format: functional, cell-based; details: INS-1E
[33] = biological target: T4, Tyrosine-protein phosphatase non-receptor type 7 (Homo sapiens, UniProt P35236); experiment: HePTP tyrosine phosphatase activity blockers – biochemical, absorbance, leukemia target, primary screen (AID 521); format: functional
T4 sequence (P35236 whole entry): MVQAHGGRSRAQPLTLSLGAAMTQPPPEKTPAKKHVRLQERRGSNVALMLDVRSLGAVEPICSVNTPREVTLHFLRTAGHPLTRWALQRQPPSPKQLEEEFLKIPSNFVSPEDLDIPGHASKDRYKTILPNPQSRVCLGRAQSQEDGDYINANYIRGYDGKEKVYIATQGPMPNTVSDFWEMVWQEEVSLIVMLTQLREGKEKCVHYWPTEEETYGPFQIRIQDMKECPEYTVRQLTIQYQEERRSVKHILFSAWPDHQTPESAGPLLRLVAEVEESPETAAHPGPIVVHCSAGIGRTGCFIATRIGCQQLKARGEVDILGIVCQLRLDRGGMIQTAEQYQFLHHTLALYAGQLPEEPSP

[34] = loss of viability in HepG2 cells – cell-based, CellTiter-Glo, cherry-picked, cytotoxicity control for Shn3 inhibitor project, dose response (AID 624134); format: functional
[35] = test system: Vero; experiment: cells; format: functional, Chlorocebus sabaeus; details: Chlorocebus sabaeus, Vero
[36] = viability loss in HEK293 cells – cell-based, plate reader, cherry-picked samples, cytotoxicity control, dose response (AID 743446); format: functional
[37] = biological target: T5, COUP transcription factor 2 (Homo sapiens, UniProt P24468); experiment: Luminescence-based cell-based high throughput dose response assay to identify inhibitors of COUP-TFII (NR2F2).; format: functional;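 note: HEK293 cells transiently cotransfected with COUP-TFII expression vector and reporter; luciferase reporter luminescence driven by COUP-TFII from the pX2-168 reporter plasmid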
T5 sequence (P24468 whole entry): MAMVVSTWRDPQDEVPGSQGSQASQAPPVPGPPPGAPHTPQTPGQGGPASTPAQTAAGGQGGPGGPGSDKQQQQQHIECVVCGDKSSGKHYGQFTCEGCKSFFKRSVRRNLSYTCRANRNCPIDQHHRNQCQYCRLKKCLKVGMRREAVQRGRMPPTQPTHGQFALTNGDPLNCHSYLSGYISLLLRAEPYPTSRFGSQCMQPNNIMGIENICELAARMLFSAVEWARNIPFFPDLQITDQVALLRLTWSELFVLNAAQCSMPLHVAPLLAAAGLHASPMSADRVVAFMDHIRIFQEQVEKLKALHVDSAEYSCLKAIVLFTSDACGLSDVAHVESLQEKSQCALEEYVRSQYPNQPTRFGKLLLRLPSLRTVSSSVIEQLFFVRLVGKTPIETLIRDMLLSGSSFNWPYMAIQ

[38] = toxicity toward HepG2 liver cells – cell-based, plate reader, cherry-pick, antagonist series, cytotoxicity control, dose response (AID 743416); format: functional
[39] = test system: BJ; experiment: cells; format: functional, cell-based; details: Homo sapiens
[40] = reduction of Shn3 3'UTR-driven luciferase in osteoblasts – cell-based, Clone20 osteoblasts, firefly luciferase, cherry-picked, dose response (AID 624132); format: functional;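 note: firefly luciferase luminescence from reporter carrying the Shn3 3'UTR in osteoblasts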
[41] = blockade of melanocortin 4 receptor signaling – cell-based, plate reader, cherry pick, counter-screen for LGR2 antagonist project, dose response (AID 743444); format: functional;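 note: transfected HEK 293 cells stimulated with alpha-MSH peptide; potency of inhibitors of the alpha-MSH evoked signal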
[42] = test system: Vero; experiment: cells; format: functional, cell-based; details: Chlorocebus sabaeus
[43] = A549 cell cytotoxicity, dose response, cytotoxicity control, plate reader, cherry-pick, antagonist series (AID 743412); format: functional, cell-based
[44] = blockers of bursicon-stimulated LGR2 cAMP reporter – cell-based, HEK293, CRE-luciferase reporter, cherry pick, set 2, dose response (AID 743343); format: functional;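 note: transfected cells were stimulated with diluted bursicon conditioned medium after compound addition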
[45] = biological target: E3 ubiquitin-protein ligase Mdm2 (Homo sapiens, UniProt Q00987); experiment: MDM2-luc reporter signal enhancers, multi-concentration potency testing, MDM2 ubiquitin-protein ligase inhibitor program, whole-cell format, luminescence detection, 384-well microplate (AID 1394); format: functional;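 note: MDM2 E3 inhibitors raise luminescence so EC50 is for signal enhancement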
[46] = non-specific 3'UTR reporter inhibition in Clone20-Shn3RL – cell-based, Renilla luciferase, cherry-picked, counter-screen for Shn3 inhibitor project, dose response (AID 624133); format: functional
[47] = DRD fibroblast viability loss – cell-based, non-viral oncogenic, luminescence, dose response (AID 1934); format: functional; details: Homo sapiens
[48] = test system: BJ; experiment: BJ-TERT fibroblast viability loss – cell-based, RAS-independent, luminescence, dose response (AID 1933); format: functional; details: Homo sapiens
[49] = test system: BJ; experiment: BJ-TERT-LT-ST fibroblast viability loss – cell-based, RAS-independent, luminescence, dose response (AID 1935); format: functional; details: Homo sapiens;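 note: BJ fibroblasts immortalized with TERT plus LT and ST oncogenes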

T2 sequence (Q00975 whole entry): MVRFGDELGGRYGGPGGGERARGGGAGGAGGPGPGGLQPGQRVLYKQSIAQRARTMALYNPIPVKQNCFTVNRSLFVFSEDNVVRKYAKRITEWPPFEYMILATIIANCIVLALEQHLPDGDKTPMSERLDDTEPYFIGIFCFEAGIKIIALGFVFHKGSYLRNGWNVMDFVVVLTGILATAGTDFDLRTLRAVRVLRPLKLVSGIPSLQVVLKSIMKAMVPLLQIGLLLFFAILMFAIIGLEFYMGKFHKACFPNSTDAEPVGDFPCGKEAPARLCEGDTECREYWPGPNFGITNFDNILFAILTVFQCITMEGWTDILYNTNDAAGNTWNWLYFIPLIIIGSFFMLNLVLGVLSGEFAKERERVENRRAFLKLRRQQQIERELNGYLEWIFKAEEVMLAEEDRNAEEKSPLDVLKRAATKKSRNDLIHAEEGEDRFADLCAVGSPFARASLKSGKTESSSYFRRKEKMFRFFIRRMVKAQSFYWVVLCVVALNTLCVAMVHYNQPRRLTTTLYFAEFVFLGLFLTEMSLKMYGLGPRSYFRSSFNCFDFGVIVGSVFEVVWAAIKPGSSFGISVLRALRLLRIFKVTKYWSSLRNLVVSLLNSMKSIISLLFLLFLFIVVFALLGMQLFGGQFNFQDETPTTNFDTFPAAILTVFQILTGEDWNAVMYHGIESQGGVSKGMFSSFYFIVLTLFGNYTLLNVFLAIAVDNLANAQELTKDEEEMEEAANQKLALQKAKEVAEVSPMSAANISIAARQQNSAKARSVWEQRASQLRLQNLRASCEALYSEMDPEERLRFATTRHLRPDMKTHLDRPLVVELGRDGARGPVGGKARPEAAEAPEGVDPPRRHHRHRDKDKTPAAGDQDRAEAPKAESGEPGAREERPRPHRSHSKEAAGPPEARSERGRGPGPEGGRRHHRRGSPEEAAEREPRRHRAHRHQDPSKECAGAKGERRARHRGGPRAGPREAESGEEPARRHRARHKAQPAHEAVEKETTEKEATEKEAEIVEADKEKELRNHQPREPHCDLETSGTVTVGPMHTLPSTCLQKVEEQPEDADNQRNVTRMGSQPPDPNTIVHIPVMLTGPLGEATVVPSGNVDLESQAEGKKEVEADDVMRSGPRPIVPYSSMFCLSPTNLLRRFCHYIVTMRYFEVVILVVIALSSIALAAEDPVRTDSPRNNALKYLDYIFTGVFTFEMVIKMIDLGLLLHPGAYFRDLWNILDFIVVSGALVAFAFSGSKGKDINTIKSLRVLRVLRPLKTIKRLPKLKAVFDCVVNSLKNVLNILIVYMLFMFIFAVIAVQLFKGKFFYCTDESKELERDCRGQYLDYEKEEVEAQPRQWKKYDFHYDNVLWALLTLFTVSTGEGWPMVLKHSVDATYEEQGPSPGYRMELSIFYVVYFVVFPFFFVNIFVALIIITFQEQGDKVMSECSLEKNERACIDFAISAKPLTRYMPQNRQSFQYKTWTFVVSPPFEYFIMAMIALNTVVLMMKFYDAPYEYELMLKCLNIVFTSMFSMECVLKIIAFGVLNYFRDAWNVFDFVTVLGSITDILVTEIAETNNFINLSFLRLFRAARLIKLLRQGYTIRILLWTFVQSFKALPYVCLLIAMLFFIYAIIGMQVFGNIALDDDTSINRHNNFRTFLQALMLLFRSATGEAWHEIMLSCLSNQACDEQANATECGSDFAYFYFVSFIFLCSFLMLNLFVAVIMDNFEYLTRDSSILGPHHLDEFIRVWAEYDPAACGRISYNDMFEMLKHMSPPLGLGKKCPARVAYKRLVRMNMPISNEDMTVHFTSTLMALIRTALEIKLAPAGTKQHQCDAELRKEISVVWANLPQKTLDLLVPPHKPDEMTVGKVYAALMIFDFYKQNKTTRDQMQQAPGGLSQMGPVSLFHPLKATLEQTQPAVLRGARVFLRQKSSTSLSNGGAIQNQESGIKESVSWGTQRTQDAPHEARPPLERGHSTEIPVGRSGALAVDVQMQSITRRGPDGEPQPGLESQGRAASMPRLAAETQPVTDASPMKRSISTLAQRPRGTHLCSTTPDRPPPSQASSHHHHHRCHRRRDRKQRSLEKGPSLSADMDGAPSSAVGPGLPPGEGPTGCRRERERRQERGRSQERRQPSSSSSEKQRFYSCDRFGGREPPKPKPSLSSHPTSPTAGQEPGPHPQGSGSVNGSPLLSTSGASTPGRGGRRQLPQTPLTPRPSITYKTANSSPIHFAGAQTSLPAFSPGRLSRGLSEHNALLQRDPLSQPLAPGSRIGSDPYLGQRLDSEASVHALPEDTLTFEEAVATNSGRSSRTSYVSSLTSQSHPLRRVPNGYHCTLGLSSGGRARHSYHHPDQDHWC
T2 sequence (Q02410 whole entry): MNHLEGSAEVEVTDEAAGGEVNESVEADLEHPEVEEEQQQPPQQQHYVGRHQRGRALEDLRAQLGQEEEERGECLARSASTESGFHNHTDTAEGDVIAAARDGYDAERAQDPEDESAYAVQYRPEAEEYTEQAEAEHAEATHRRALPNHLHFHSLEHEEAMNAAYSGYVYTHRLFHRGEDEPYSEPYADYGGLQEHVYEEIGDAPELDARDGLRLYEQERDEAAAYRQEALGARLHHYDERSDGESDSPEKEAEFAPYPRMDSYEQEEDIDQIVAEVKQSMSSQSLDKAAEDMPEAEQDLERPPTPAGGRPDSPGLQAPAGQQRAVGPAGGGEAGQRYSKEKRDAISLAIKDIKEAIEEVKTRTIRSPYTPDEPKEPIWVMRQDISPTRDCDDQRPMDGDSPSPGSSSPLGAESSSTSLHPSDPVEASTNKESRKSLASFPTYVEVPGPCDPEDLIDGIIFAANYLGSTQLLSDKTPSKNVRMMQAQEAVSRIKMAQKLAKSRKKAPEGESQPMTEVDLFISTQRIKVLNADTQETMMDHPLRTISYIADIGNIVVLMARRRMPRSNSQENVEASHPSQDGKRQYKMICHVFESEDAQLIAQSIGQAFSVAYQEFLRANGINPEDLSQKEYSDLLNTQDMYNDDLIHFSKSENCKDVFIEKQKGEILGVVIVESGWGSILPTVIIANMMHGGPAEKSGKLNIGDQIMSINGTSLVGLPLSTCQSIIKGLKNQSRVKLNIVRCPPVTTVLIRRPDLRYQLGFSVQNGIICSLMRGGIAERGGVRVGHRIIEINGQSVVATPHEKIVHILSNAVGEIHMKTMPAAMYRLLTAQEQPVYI
5-hydroxytryptamine receptor 1A, sequence (P08908 whole entry): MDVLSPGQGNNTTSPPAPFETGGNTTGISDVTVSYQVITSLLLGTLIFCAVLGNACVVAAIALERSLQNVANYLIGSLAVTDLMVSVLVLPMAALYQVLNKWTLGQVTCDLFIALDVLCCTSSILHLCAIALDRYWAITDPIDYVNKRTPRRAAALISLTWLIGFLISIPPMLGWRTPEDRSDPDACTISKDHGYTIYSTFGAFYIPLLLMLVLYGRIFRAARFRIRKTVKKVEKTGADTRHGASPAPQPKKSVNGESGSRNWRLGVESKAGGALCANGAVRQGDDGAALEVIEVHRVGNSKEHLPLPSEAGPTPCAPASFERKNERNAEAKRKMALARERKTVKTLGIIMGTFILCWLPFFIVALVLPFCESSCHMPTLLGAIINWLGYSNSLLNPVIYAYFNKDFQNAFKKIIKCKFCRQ
Mitogen-activated protein kinase 10, sequence (P53779 whole entry): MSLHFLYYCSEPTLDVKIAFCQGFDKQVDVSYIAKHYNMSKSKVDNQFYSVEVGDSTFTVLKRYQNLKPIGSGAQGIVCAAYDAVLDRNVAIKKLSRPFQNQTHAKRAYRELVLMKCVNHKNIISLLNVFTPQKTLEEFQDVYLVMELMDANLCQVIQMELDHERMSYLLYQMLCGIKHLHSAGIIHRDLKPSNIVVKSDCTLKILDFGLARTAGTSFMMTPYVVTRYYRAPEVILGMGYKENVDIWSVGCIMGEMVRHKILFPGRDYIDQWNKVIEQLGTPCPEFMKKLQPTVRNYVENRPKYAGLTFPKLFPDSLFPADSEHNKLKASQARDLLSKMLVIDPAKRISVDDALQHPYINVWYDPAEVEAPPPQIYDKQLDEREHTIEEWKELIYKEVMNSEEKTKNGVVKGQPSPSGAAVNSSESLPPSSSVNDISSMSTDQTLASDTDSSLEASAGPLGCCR
E3 ubiquitin-protein ligase Mdm2, sequence (Q00987 whole entry): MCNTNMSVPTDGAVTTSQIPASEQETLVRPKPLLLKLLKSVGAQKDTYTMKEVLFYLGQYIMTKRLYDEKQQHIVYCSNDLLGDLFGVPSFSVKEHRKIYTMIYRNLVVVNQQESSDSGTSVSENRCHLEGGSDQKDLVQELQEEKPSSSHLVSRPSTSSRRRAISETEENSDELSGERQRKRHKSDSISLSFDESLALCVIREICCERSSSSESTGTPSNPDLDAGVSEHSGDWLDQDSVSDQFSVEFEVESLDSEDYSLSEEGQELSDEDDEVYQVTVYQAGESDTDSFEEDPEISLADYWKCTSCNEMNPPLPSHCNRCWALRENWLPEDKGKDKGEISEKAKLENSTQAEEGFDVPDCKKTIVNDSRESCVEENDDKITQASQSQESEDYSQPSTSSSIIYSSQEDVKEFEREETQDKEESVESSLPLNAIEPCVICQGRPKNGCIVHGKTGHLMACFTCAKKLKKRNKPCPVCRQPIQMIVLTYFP
Protein Tat, sequence (P04608 whole entry): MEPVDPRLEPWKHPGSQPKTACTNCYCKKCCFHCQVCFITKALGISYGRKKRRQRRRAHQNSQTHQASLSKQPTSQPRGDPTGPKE

## N#Cc1c(NC(=O)CSc2nnnn2C2CCCCC2)sc2c1CCCC2
[1]
  IC50: > 50 µM (not active)

## COc1ccc(NS(=O)(=O)c2cccc(C(=O)NNC(=O)c3cccn3C)c2)cc1
[2]
  IC50: 5.42 µM (active)
[3]
  IC50: 23.5 µM (active)
[4]
  IC50: > 100 µM (active)
[5]
  IC50: > 50 µM (inactive)

## COc1ccc(NC2=Nc3ccccc3N3C2=Nc2c(c(C)nn2-c2ccc(C)cc2)C3c2cccnc2)cc1 (stereo not given)
[6]
  EC50: > 38 µM (not active)
[7]
  IC50: 10.4 µM (active)
[8]
  EC50: 53.8 µM (active)
[9]
  EC50: > 195 µM (not active)
[10]
  CC50: > 50 µM (active)

## CC(CC(=O)Nc1ccc(F)c([N+](=O)[O-])c1)c1ccccc1 (stereo not given)
[11]
  IC50: > 109 µM (inactive)
[12]
  IC50: > 83.3 µM (inactive)

## CC(C)n1nc(C(=O)OCC(=O)N(C)C2CCS(=O)(=O)C2)c2ccccc2c1=O (stereo not given)
[13]
  IC50: 35.5 µM (not active)

## CCN(CC)c1nc(N2CCOCC2)c(C#N)c2c1CN(C)CC2
[14]
  EC50: > 50 µM (not active)

## COc1ccc(-c2ccc([C@H]3[C@@H](C#N)N(C(=O)NC(C)C)[C@@H]3CO)cc2)cc1
[15]
  AC50: 14.7 µM (active)
[16]
  AC50: 0.511 µM (active)
[17]
  AC50: 0.472 µM (active)
[18]
  AC50: 0.604 µM (active)
[19]
  AC50: 0.528 µM (active)
[20]
  AC50: > 39 µM (inactive)
[21]
  AC50: 78 µM (active)
[22]
  AC50: 0.725 µM (active)

## CC(C)C[C@H](NC(=O)[C@H](Cc1ccccc1)NC(=O)c1cnccn1)B(O)O
[23]
  IC50: 0.00241 µM (active)
[24]
  IC50: 0.0032 µM (active)
[25]
  IC50: 0.00315 µM (active)
[26]
  IC50: 0.00636 µM (active)
[27]
  IC50: 0.00513 µM (active)
[28]
  IC50: 0.0078 µM (active)
[29]
  IC50: 0.00365 µM (active)

## CCN(CC)CCOc1ccccc1C(=O)CCc1ccccc1 [ETAFENONE]
[30]
  IC50: > 10 µM (inactive)
[31]
  IC50: 3.89 µM (active)
[32]
  IC50: > 33.3 µM (inactive)
[28]
  IC50: > 10 µM (inactive)

## CCn1c(COc2ccc(Cl)c(C)c2)nnc1SCC(=O)N1CCCC1
[33]
  IC50: > 100 µM (not active)

## CCSc1nc2ccccc2n1C(=O)/C=C/c1ccc(OC)c(OC)c1
[34]
  AC50: 47 µM (active)
[35]
  CC50: 20.2 µM (active)
[36]
  AC50: 5.58 µM (active)
[37]
  IC50: 8.54 µM (active)
[38]
  AC50: 12.9 µM (active)
[39]
  EC50: > 75 µM (inconclusive)
[40]
  AC50: 0.962 µM (active)
[41]
  AC50: 5.86 µM (active)
[42]
  IC50: 10.4 µM (active)
[43]
  AC50: 5.61 µM (active)
[44]
  AC50: 4.61 µM (active)
[45]
  EC50: 2.65 µM (active)
[46]
  AC50: 7.89 µM (active)
[47]
  EC50: 5.41 µM (inconclusive)
[48]
  EC50: > 150 µM (not active)
[49]
  EC50: 13.6 µM (active)
